Holding throughout (assay): NCI anticancer screen, dose series, 48 h
The subject of assay [1] is ACHN renal.
The test system of assay [2] is SR leukemia.
Assay [3] deals with NCI-H226 lung.
The subject of assay [4] is TK-10 renal.
Assay [5] has as its system UO-31 renal.
Assay [6] relates to OVCAR-3 ovarian.
Assay [7] deals with SK-MEL-5 melanoma.
Assay [8] concerns A498 renal.
Assay [9] relates to LOX IMVI melanoma.
For assay [10], the system named is T-47D breast.

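Five compound concentrations were applied to cells in 96-well plates for 48 hours; endpoints were derived by simple linear interpolation of the resulting dose-response curve. GI50 is the concentration that inhibits growth by half. TGI is the concentration that stops growth completely.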

Turning to `O=C(O)c1ccc(-c2ccc(C(=O)O)cc2I)c(I)c1`, the GI50 in [1], in assay [2], in assay [3], in assay [4], in assay [5] and in assay [6] was greater than 100 µM each time. Moreover, the GI50 in assay [7], in [8], in assay [9] and in assay [10] was greater than 100 µM throughout. Besides, the TGI in assay [1], in [2], in assay [3], in assay [4], in assay [5] and in assay [6] was greater than 100 µM in each case. For the same compound, the TGI in assay [7], in assay [8], in [9] and in assay [10] was greater than 100 µM in each case.

`O=[N+]([O-])c1cc(Cl)cc2c1nc(NCCO)c1ccccc12`: the TGI in [1] was greater than 100 µM; in assay [2] it was 7.09 µM; in [3], greater than 80.2 µM; in assay [4], greater than 60.5 µM; in assay [5], greater than 100 µM; in assay [6], greater than 100 µM. The TGI in assay [7] was 3.96 µM; in assay [8], 56.4 µM; in assay [9] it was greater than 100 µM; in assay [10], greater than 100 µM.

As for `CCCCN(CCCC)CC(C)(C)C(O)c1ccc(OC)c2ccccc12` (stereo not given), the GI50 is 3.96 µM in assay [1]; 2.89 µM in assay [2]; 2.42 µM in assay [3]; 8.02 µM in assay [4]; 3.02 µM in assay [5]; 2.84 µM in assay [6]. The GI50 in [7] is 2 µM; in assay [8], 4.27 µM; in assay [9], 5.53 µM; in assay [10], 3.77 µM. Further, the TGI in [1] came out at 16 µM; in [2], 8.34 µM; in assay [3], 9.24 µM; in assay [4] it was 24.3 µM; in assay [5] it was 17.4 µM; in [6], 13.9 µM. The TGI in assay [7] turned out to be 4.95 µM; in [8], 22.9 µM; in assay [9], 19.4 µM; in assay [10], 17 µM.

In the case of `CCCCCCNC(=O)Oc1ccc(/C(=C(\C)c2ccccc2)c2ccc(OCCN3CCCCC3)cc2)cc1`, the GI50 in [1] was 2.85 µM; in [2], 1.73 µM; in assay [3], 5.91 µM; in assay [4], 7.85 µM; in assay [5] it was 1.38 µM; in [6], 1.97 µM. In addition, the GI50 is 1.63 µM in [7], 7.46 µM in [8], 1.71 µM in assay [9] and 1.14 µM in assay [10]. Further, the TGI was determined as 10.9 µM in assay [1]; 4.39 µM in [2]; 21.4 µM in [3]; 21.4 µM in [4]; 2.86 µM in [5]; 4.82 µM in assay [6]. For the same compound, the TGI in assay [7] came out at 2.99 µM; in assay [8], 21.6 µM; in [9] it was 3.09 µM; in assay [10], 4.87 µM.

On to `C=C1C(=O)O[C@H]2[C@H]1[C@H](OC(=O)/C(C)=C\C)C[C@]1(CO1)[C@@H]1[C@H](OC(C)=O)C=C(C)[C@]21O`, for which the TGI is 24.5 µM in assay [1]; 28.5 µM in assay [2]; greater than 61.2 µM in assay [3]; 23.1 µM in assay [4]; 29.4 µM in assay [5]; 32.1 µM in [6]. The TGI in assay [7] is 37.2 µM; in assay [8], greater than 100 µM; in assay [9] it was 29 µM; in assay [10] it was 36.5 µM.

Take `Cc1ccccc1-n1c(/C=C\c2ccccn2)nc2ccccc2c1=O`: the GI50 in assay [1] is 12.8 µM; in [2], 3.05 µM; in assay [3], 28.8 µM; in assay [4], 32.6 µM; in assay [5], 7.51 µM; in assay [6], 6.75 µM. For the same compound, the GI50 in [7] was 9.61 µM; in assay [8], 9.47 µM; in assay [9], 15 µM; in assay [10], 5.99 µM. Moreover, the TGI is greater than 100 µM in assay [1]; 20.4 µM in assay [2]; greater than 100 µM in assay [3]; greater than 100 µM in [4]; greater than 100 µM in assay [5]; 53.6 µM in assay [6]. For the same compound, the TGI in assay [7] is 22.6 µM; in [8], 70.6 µM; in [9], 37 µM; in assay [10], 64.8 µM.

On to `CC1CCCN(CC(O)CN2CCCc3ccccc32)C1` (stereo not given), for which the TGI in assay [1], in [2], in [3], in assay [4], in assay [5] and in [6] was greater than 100 µM throughout. Further, the TGI in assay [7], in assay [8], in [9] and in assay [10] was greater than 100 µM throughout.

Regarding `BrC(Br)(Br)c1cnc2ccccc2n1`, the GI50 was 1.41 µM in [1]; 1.79 µM in assay [2]; 3.91 µM in assay [3]; 1.55 µM in assay [4]; 0.793 µM in [5]; 1.5 µM in assay [6]. Besides, the GI50 in assay [7] was 2.32 µM; in assay [8], 9 µM; in assay [9] it was 0.425 µM; in assay [10] it was 1.33 µM. The TGI in assay [1] was determined as 2.84 µM; in assay [2] it was 5.81 µM; in assay [3], 8.38 µM; in assay [4], 3.02 µM; in [5], 2.39 µM; in [6], 3.04 µM. Moreover, the TGI amounted to 7.54 µM in assay [7], 21.2 µM in [8], 2.19 µM in [9] and 3.31 µM in assay [10].

On to `O=C1/C(=C/c2ccc([N+](=O)[O-])s2)Oc2ccccc21`, for which the GI50 in assay [1] is 0.568 µM; in assay [2], 0.216 µM; in [3] it was 2.24 µM; in assay [4] it was 1.68 µM; in assay [5], 0.323 µM; in [6], 0.25 µM. In addition, the GI50 in assay [7] is 1.18 µM; in assay [8] it was 3.22 µM; in assay [9] it was 0.434 µM; in [10] it was 0.29 µM. In addition, the TGI in [1] stood at 1.77 µM; in assay [2], 0.759 µM; in assay [3], 5.75 µM; in [4], 3.59 µM; in assay [5] it was 2.13 µM; in assay [6], 0.55 µM. The TGI in assay [7] amounted to 2.62 µM; in [8] it was 18 µM; in assay [9] it was 1.64 µM; in [10], 4.12 µM.
